Measured values from US4492692A, “Cephalosporin derivatives” (Imperial Chemical Industries PLC, priority 1980, dated 1985).
≈ marks a conversion by molar mass, not a printed value.

Experiments:
Assay in all cases: MIC by agar-dilution technique, Jewell and Pearmain agar
Format in all cases: cell-based
[1] = test system: Strep. pyogenes; conditions: Streptococcus pyogenes, Code No. A1, inoculum ~10^5 CFU
Excerpt: (§1) The results set out in the following Table are illustrative of the biological activity of the compounds of the present invention. […] The following results are those obtained on a standard in vitro test system using Jewell and Pearmain agar medium. The antibacterial activity is described in terms of the minimum inhibitory concentration (MIC) determined by agar-dilution technique with an inoculum size of ~10^5 CFU.

[2] = test system: Proteus mirabilis; conditions: Code No. A18, inoculum ~10^5 CFU
Excerpt: as §1

[3] = test system: E. coli; conditions: Escherichia coli, Code No. A8, inoculum ~10^5 CFU
Excerpt: as §1

[4] = test system: Serratia marescens; conditions: Code No. A16, inoculum ~10^5 CFU
Excerpt: as §1

[5] = test system: Ps. aeruginosa; conditions: Pseudomonas aeruginosa, Code No. A21, inoculum ~10^5 CFU
Excerpt: as §1

[6] = test system: K. aerogenes; conditions: Klebsiella aerogenes, Code No. A10, inoculum ~10^5 CFU
Excerpt: as §1

[7] = test system: Staph. aureus; conditions: Staphylococcus aureus, Code No. A6, inoculum ~10^5 CFU
Excerpt: as §1

[8] = test system: Ent. cloacae; conditions: Enterobacter cloacae, Code No. A13, inoculum ~10^5 CFU
Excerpt: as §1

[9] = test system: Salmonella dublin; conditions: Salmonella enterica, Code No. A20, inoculum ~10^5 CFU
Excerpt: as §1

**Q.** For `CNC(=O)OCCCc1c[nH]c(N[C@@H]2C(=O)N3C(C(=O)O)=C(COC(C)=O)CS[C@H]23)n1` [Example 9.2, 7-[4-(3-methylcarbamoyloxypropyl)imidazol-2-yl]amino-3-acetoxymethylceph-3-em-4-carboxylic acid], which MIC [1] is on record?
**A.** Its MIC is 32 µg/mL (≈ 70.6 µM).

**Q.** And the MIC [2]?
**A.** The MIC was 8 µg/mL (≈ 17.6 µM).

**Q.** What about the MIC [3] of the same compound?
**A.** The MIC was 0.03 µg/mL (≈ 0.0662 µM).

**Q.** What about the MIC [4] of the same compound?
**A.** Its MIC is 8 µg/mL (≈ 17.6 µM).

**Q.** What about the MIC [5] of the same compound?
**A.** The MIC was greater than 256 µg/mL.

**Q.** And the MIC [6]?
**A.** The MIC was 0.06 µg/mL (≈ 0.132 µM).

**Q.** What about the MIC [7] of the same compound?
**A.** The MIC was 64 µg/mL (≈ 141 µM).

**Q.** What about the MIC [8] of the same compound?
**A.** Its MIC is 64 µg/mL (≈ 141 µM).

**Q.** And the MIC [9]?
**A.** The MIC was 0.06 µg/mL (≈ 0.132 µM).

**Q.** Which results are given for `Cn1nnnc1SCC1=C(C(=O)O)N2C(=O)[C@@H](Nc3nc(CCC#N)c[nH]3)[C@H]2SC1` [Example 16, 7-[4-(2-cyanoethyl)imidazol-2-yl]amino-3-(1-methyl-1H-tetrazol-5-yl)thiomethylceph-3-em-4-carboxylic acid]?
**A.** MIC [1]: 8 µg/mL (≈ 17.9 µM); MIC [2]: 1 µg/mL (≈ 2.23 µM); MIC [3]: 0.016 µg/mL (≈ 0.0358 µM); MIC [4]: 2 µg/mL (≈ 4.47 µM); MIC [5]: > 128 µg/mL; MIC [6]: 0.06 µg/mL (≈ 0.134 µM); MIC [7]: 16 µg/mL (≈ 35.8 µM); MIC [8]: 4 µg/mL (≈ 8.94 µM); MIC [9]: 0.008 µg/mL (≈ 0.0179 µM)

**Q.** For `O=C(O)C1=C(CSc2c[nH]nn2)CS[C@@H]2[C@H](Nc3nc(CCNC(=O)C(F)(F)F)c[nH]3)C(=O)N12` [Example 10, 7-[4-(2-trifluoroacetylaminoethyl)imidazol-2-yl]amino-3-(1H-1,2,3-triazol-4-yl)thiomethylceph-3-em-4-carboxylic acid], which MIC [1] is on record?
**A.** The MIC was 64 µg/mL (≈ 123 µM).

**Q.** What about the MIC [2] of the same compound?
**A.** The MIC was 2 µg/mL (≈ 3.86 µM).

**Q.** What about the MIC [3] of the same compound?
**A.** Its MIC is 0.03 µg/mL (≈ 0.0579 µM).

**Q.** And the MIC [4]?
**A.** Its MIC is 16 µg/mL (≈ 30.9 µM).

**Q.** And the MIC [5]?
**A.** The MIC was greater than 256 µg/mL.

**Q.** What about the MIC [6] of the same compound?
**A.** Its MIC is 0.06 µg/mL (≈ 0.116 µM).

**Q.** And the MIC [7]?
**A.** The MIC was 64 µg/mL (≈ 123 µM).

**Q.** And the MIC [8]?
**A.** The MIC was 16 µg/mL (≈ 30.9 µM).

**Q.** And the MIC [9]?
**A.** The MIC was 0.016 µg/mL (≈ 0.0309 µM).

**Q.** `Cc1nnc(SCC2=C(C(=O)O)N3C(=O)[C@@H](Nc4nc(CCNC(=O)C(F)(F)F)c[nH]4)[C@H]3SC2)s1` [Example 4.2, 7-[4-(2-trifluoroacetylaminoethyl)imidazol-2-yl]amino-3-(2-methyl-1,3,4-thiadiazol-5-yl)thiomethylceph-3-em-4-carboxylic acid] was tested. Which MIC [1] did it give?
**A.** The MIC was 16 µg/mL (≈ 29.1 µM).

**Q.** And the MIC [2]?
**A.** The MIC was 16 µg/mL (≈ 29.1 µM).

**Q.** What about the MIC [3] of the same compound?
**A.** Its MIC is 0.12 µg/mL (≈ 0.218 µM).

**Q.** What about the MIC [4] of the same compound?
**A.** The MIC was 4 µg/mL (≈ 7.28 µM).

**Q.** What about the MIC [5] of the same compound?
**A.** Its MIC is greater than 256 µg/mL.

**Q.** And the MIC [6]?
**A.** Its MIC is 0.12 µg/mL (≈ 0.218 µM).

**Q.** What about the MIC [7] of the same compound?
**A.** The MIC was 32 µg/mL (≈ 58.2 µM).

**Q.** And the MIC [8]?
**A.** Its MIC is 16 µg/mL (≈ 29.1 µM).

**Q.** And the MIC [9]?
**A.** Its MIC is 0.25 µg/mL (≈ 0.455 µM).

**Q.** What does the source list for `C=CCc1c[nH]c(N[C@@H]2C(=O)N3C(C(=O)O)=C(CSc4nnnn4C)CS[C@H]23)n1` [Example 6.1, 7-(4-allylimidazol-2-yl)amino-3-(1-methyl-1H-tetrazol-5-yl)thiomethylceph-3-em-4-carboxylic acid]?
**A.** MIC [1]: 8 µg/mL (≈ 18.4 µM); MIC [2]: 2 µg/mL (≈ 4.6 µM); MIC [3]: 0.016 µg/mL (≈ 0.0368 µM); MIC [4]: 0.25 µg/mL (≈ 0.575 µM); MIC [5]: > 256 µg/mL; MIC [6]: 0.03 µg/mL (≈ 0.069 µM); MIC [7]: 32 µg/mL (≈ 73.6 µM); MIC [8]: 16 µg/mL (≈ 36.8 µM); MIC [9]: 0.016 µg/mL (≈ 0.0368 µM)

**Q.** Which MIC [2] does the source give for `CC(=O)OCC1=C(C(=O)O)N2C(=O)[C@@H](Nc3nc(Cc4ccccc4)c[nH]3)[C@H]2SC1` [Example 1, 7-(4-benzylimidazol-2-yl)amino-3-acetoxymethylceph-3-em-4-carboxylic acid] here?
**A.** Its MIC is 32 µg/mL (≈ 74.7 µM).

**Q.** What about the MIC [3] of the same compound?
**A.** The MIC was 0.25 µg/mL (≈ 0.583 µM).

**Q.** And the MIC [4]?
**A.** Its MIC is 64 µg/mL (≈ 149 µM).

**Q.** And the MIC [5]?
**A.** The MIC was greater than 256 µg/mL.

**Q.** What about the MIC [6] of the same compound?
**A.** The MIC was 1 µg/mL (≈ 2.33 µM).

**Q.** What about the MIC [7] of the same compound?
**A.** The MIC was 32 µg/mL (≈ 74.7 µM).

**Q.** What about the MIC [8] of the same compound?
**A.** Its MIC is 128 µg/mL (≈ 299 µM).

**Q.** What about the MIC [9] of the same compound?
**A.** The MIC was 0.5 µg/mL (≈ 1.17 µM).

**Q.** Which MIC [1] does the source give for `O=C(O)C1=C(CSc2c[nH]nn2)CS[C@@H]2[C@H](Nc3nc(CCCNC(=S)NCC(F)(F)F)c[nH]3)C(=O)N12` [Example 80, 7-[4-(3-[3-(2,2,2-trifluoroethyl)thioureido]propyl)imidazol-2-yl]amino-3-(1H-1,2,3-triazol-4-yl)thiomethylceph-3-em-4-carboxylic acid] here?
**A.** Its MIC is 32 µg/mL (≈ 55.4 µM).

**Q.** And the MIC [2]?
**A.** Its MIC is 4 µg/mL (≈ 6.92 µM).

**Q.** What about the MIC [3] of the same compound?
**A.** Its MIC is 1 µg/mL (≈ 1.73 µM).

**Q.** And the MIC [4]?
**A.** The MIC was 64 µg/mL (≈ 111 µM).

**Q.** And the MIC [5]?
**A.** The MIC was greater than 128 µg/mL.

**Q.** And the MIC [6]?
**A.** The MIC was 2 µg/mL (≈ 3.46 µM).

**Q.** And the MIC [7]?
**A.** The MIC was 32 µg/mL (≈ 55.4 µM).

**Q.** And the MIC [8]?
**A.** Its MIC is 4 µg/mL (≈ 6.92 µM).

**Q.** And the MIC [9]?
**A.** The MIC was 0.5 µg/mL (≈ 0.866 µM).
